Data published in PMC5218480 (PLoS ONE, 2017).

Test system: MV-4-11 cells
Experiment: Gene expression microarray analysis (Affymetrix PrimeView) and GSEA
Format: cell-based, human
Set-up: RFU PODN (11730768_x_at) / Fold change /veh PODN (11730768_x_at) / RFU LINC00158 (11744669_a_at) / Fold change /veh LINC00158 (11744669_a_at) / RFU DUSP10 (11751237_a_at) / Fold change /veh DUSP10 (11751237_a_at) / RFU ID3 (11757404_x_at) / Fold change /veh ID3 (11757404_x_at) / RFU PLEKHG5 (11737974_s_at) / Fold change /veh PLEKHG5 (11737974_s_at) / RFU LRRC4B (11730491_at) / Fold change /veh LRRC4B (11730491_at) / RFU GIMAP4 (11747438_a_at) / Fold change /veh GIMAP4 (11747438_a_at) / RFU KRT8 (11758183_x_at) / Fold change /veh KRT8 (11758183_x_at) / RFU CNN1 (11734310_a_at) / Fold change /veh CNN1 (11734310_a_at) / RFU VPS37D (11726825_at) / Fold change /veh VPS37D (11726825_at) / RFU C10orf10 (11716522_x_at) / Fold change /veh C10orf10 (11716522_x_at) / RFU KIR2DL2 /// KIR2DL4 /// KIR2DL5A /// KIR2DL5B /// KIR2DS1 /// KIR2DS2 /// KIR2DS3 /// KIR2DS4 /// KIR3DL3 /// KIR3DL3 /// KIR3DS1 (11738374_at) / Fold change /veh KIR2DL2 /// KIR2DL4 /// KIR2DL5A /// KIR2DL5B /// KIR2DS1 /// KIR2DS2 /// KIR2DS3 /// KIR2DS4 /// KIR3DL3 /// KIR3DL3 /// KIR3DS1 (11738374_at) / RFU C1QL1 (11718748_at) / Fold change /veh C1QL1 (11718748_at) / RFU TMPRSS4 (11747572_a_at) / Fold change /veh TMPRSS4 (11747572_a_at) / RFU HAMP (11756126_x_at) / Fold change /veh HAMP (11756126_x_at) / RFU RNFT2 (11725882_a_at) / Fold change /veh RNFT2 (11725882_a_at) / RFU NR4A2 (11747474_a_at) / Fold change /veh NR4A2 (11747474_a_at) / RFU ABCC12 (11746883_a_at) / Fold change /veh ABCC12 (11746883_a_at) / RFU TMEM136 (11760407_x_at) / Fold change /veh TMEM136 (11760407_x_at) / RFU CLDN22 /// WWC2 (11732394_at) / Fold change /veh CLDN22 /// WWC2 (11732394_at) / RFU HLA-DPB1 (11760878_x_at) / Fold change /veh HLA-DPB1 (11760878_x_at) / RFU SPINT1 (11716480_a_at) / Fold change /veh SPINT1 (11716480_a_at) / RFU GAP43 (11754022_s_at) / Fold change /veh GAP43 (11754022_s_at) / RFU A4GNT (11735810_at) / Fold change /veh A4GNT (11735810_at) / RFU PRB3 (11715151_x_at) / Fold change /veh PRB3 (11715151_x_at) / RFU TUBB4B (11761932_at) / Fold change /veh TUBB4B (11761932_at) / RFU CAPN14 (11732068_a_at) / Fold change /veh CAPN14 (11732068_a_at) / RFU TMCC2 (11721928_a_at) / Fold change /veh TMCC2 (11721928_a_at) / RFU IRGQ (11745062_a_at) / Fold change /veh IRGQ (11745062_a_at) / RFU FAM174B (11720279_a_at) / Fold change /veh FAM174B (11720279_a_at) / RFU TMPRSS4 (11748680_a_at) / Fold change /veh TMPRSS4 (11748680_a_at) / RFU FAM212B (11763350_a_at) / Fold change /veh FAM212B (11763350_a_at) / RFU PLEKHG5 (11743358_a_at) / Fold change /veh PLEKHG5 (11743358_a_at) / RFU ZSCAN30 (11745921_a_at) / Fold change /veh ZSCAN30 (11745921_a_at) / RFU CMKLR1 (11741424_a_at) / Fold change /veh CMKLR1 (11741424_a_at) / RFU LOC101060620 /// MAPK8IP1 (11723275_at) / Fold change /veh LOC101060620 /// MAPK8IP1 (11723275_at) / RFU SPTSSB (11747773_x_at) / Fold change /veh SPTSSB (11747773_x_at) / RFU PRSS12 (11739890_at) / Fold change /veh PRSS12 (11739890_at) / RFU BIN1 (11741810_x_at) / Fold change /veh BIN1 (11741810_x_at) / RFU WNT11 (11732464_a_at) / Fold change /veh WNT11 (11732464_a_at) / RFU C10orf10 (11716521_a_at) / Fold change /veh C10orf10 (11716521_a_at) / RFU C5orf56 (11738089_at) / Fold change /veh C5orf56 (11738089_at) / RFU CYB561 (11721691_x_at) / Fold change /veh CYB561 (11721691_x_at) / RFU ANKRD19P (11752326_a_at) / Fold change /veh ANKRD19P (11752326_a_at) / RFU OR2T12 /// OR2T33 /// OR2T8 (11738714_s_at) / Fold change /veh OR2T12 /// OR2T33 /// OR2T8 (11738714_s_at) / RFU VCAN (11748164_a_at) / Fold change /veh VCAN (11748164_a_at) / RFU JSRP1 (11732532_at) / Fold change /veh JSRP1 (11732532_at) / RFU KRTAP10-11 (11738290_x_at) / Fold change /veh KRTAP10-11 (11738290_x_at) / RFU MYO3A (11730013_a_at) / Fold change /veh MYO3A (11730013_a_at) / RFU EBF3 (11725865_a_at) / Fold change /veh EBF3 (11725865_a_at) / RFU CAMK2N1 (11719241_x_at) / Fold change /veh CAMK2N1 (11719241_x_at) / RFU C5orf56 (11738088_a_at) / Fold change /veh C5orf56 (11738088_a_at) / RFU OLFML3 (11715873_a_at) / Fold change /veh OLFML3 (11715873_a_at) / RFU LOC100653217 /// NTM (11731650_a_at) / Fold change /veh LOC100653217 /// NTM (11731650_a_at) / RFU MAPK11 (11762145_a_at) / Fold change /veh MAPK11 (11762145_a_at) / RFU FIZ1 (11724087_x_at) / Fold change /veh FIZ1 (11724087_x_at) / RFU OASL (11726364_x_at) / Fold change /veh OASL (11726364_x_at) / RFU SOX15 (11748057_x_at) / Fold change /veh SOX15 (11748057_x_at) / RFU CD79A (11719716_a_at) / Fold change /veh CD79A (11719716_a_at) / RFU HIST1H1D (11736915_at) / Fold change /veh HIST1H1D (11736915_at) / RFU CASKIN2 (11723855_a_at) / Fold change /veh CASKIN2 (11723855_a_at) / RFU LOC730098 (11760151_x_at) / Fold change /veh LOC730098 (11760151_x_at) / RFU OR4N2 (11742367_at) / Fold change /veh OR4N2 (11742367_at) / RFU PRRT2 (11749266_a_at) / Fold change /veh PRRT2 (11749266_a_at) / RFU SNX32 (11753110_a_at) / Fold change /veh SNX32 (11753110_a_at) / RFU CDHR5 (11726645_a_at) / Fold change /veh CDHR5 (11726645_a_at) / RFU RCAN1 (11760418_a_at) / Fold change /veh RCAN1 (11760418_a_at) / RFU FAM167A (11723789_a_at) / Fold change /veh FAM167A (11723789_a_at) / RFU FAM26E (11764081_at) / Fold change /veh FAM26E (11764081_at) / RFU ISYNA1 (11749810_s_at) / Fold change /veh ISYNA1 (11749810_s_at) / RFU ACY1 (11761880_at) / Fold change /veh ACY1 (11761880_at) / RFU 11764098_at / Fold change /veh 11764098_at / RFU SAMD14 (11745864_x_at) / Fold change /veh SAMD14 (11745864_x_at) / RFU NPB (11741838_a_at) / Fold change /veh NPB (11741838_a_at) / RFU TMPRSS6 (11731388_a_at) / Fold change /veh TMPRSS6 (11731388_a_at) / RFU KRTAP10-2 (11738614_at) / Fold change /veh KRTAP10-2 (11738614_at) / RFU ARHGAP8 /// PRR5-ARHGAP8 (11727945_x_at) / Fold change /veh ARHGAP8 /// PRR5-ARHGAP8 (11727945_x_at) / RFU KRTAP5-7 /// NADSYN1 (11734609_at) / Fold change /veh KRTAP5-7 /// NADSYN1 (11734609_at) / RFU RASL12 (11751679_a_at) / Fold change /veh RASL12 (11751679_a_at) / RFU CDKN2B (11736163_a_at) / Fold change /veh CDKN2B (11736163_a_at) / RFU PRF1 (11729649_at) / Fold change /veh PRF1 (11729649_at) / RFU, ZNF638 /// ZNF638-IT1 / Fold change vs veh, ZNF638 /// ZNF638-IT1 / RFU, PANK3 / Fold change vs veh, PANK3 / RFU, SH3YL1 / Fold change vs veh, SH3YL1 / RFU, ZEB2 / Fold change vs veh, ZEB2 / RFU, NRIP1 / Fold change vs veh, NRIP1 / RFU, PTTG1IP / Fold change vs veh, PTTG1IP / RFU, CAPN2 / Fold change vs veh, CAPN2 / RFU, MED14 / Fold change vs veh, MED14 / RFU, SNORA58 / Fold change vs veh, SNORA58 / RFU, C1orf63 / Fold change vs veh, C1orf63 / RFU, LRRFIP1 / Fold change vs veh, LRRFIP1 / RFU, NDUFAF7 / Fold change vs veh, NDUFAF7 / RFU, SLC12A2 / Fold change vs veh, SLC12A2 / RFU, IBTK / Fold change vs veh, IBTK / RFU, ESF1 / Fold change vs veh, ESF1 / Fold change vs veh, TMEM50B / RFU, TAOK1 / Fold change vs veh, TAOK1 / RFU, ACBD3 / Fold change vs veh, ACBD3 / RFU, TMA16 / Fold change vs veh, TMA16 / RFU, RWDD3 / Fold change vs veh, RWDD3 / RFU, BCAT1 / Fold change vs veh, BCAT1 / RFU, EDEM3 / Fold change vs veh, EDEM3 / RFU, TMEM33 / Fold change vs veh, TMEM33 / RFU, WDR75 / Fold change vs veh, WDR75 / RFU, AHCTF1 / Fold change vs veh, AHCTF1 / RFU, TFRC / Fold change vs veh, TFRC / RFU, ZDHHC17 / Fold change vs veh, ZDHHC17 / RFU, NOM1 / Fold change vs veh, NOM1 / RFU, ARL8B / Fold change vs veh, ARL8B / RFU, ZBTB11 / Fold change vs veh, ZBTB11 / RFU, TAMM41 / Fold change vs veh, TAMM41 / RFU, KIAA1704 /// LOC100996395 / Fold change vs veh, KIAA1704 /// LOC100996395 / RFU, ING1 / Fold change vs veh, ING1 / RFU, TRMT61B / Fold change vs veh, TRMT61B / RFU, FUBP3 / Fold change vs veh, FUBP3 / RFU, TP53 / Fold change vs veh, TP53 / RFU, TNKS2 / Fold change vs veh, TNKS2 / RFU, ZFP14 / Fold change vs veh, ZFP14 / RFU, ACTR2 / Fold change vs veh, ACTR2 / RFU, PPP3R1 / Fold change vs veh, PPP3R1 / RFU, PIK3R1 / Fold change vs veh, PIK3R1 / RFU, HNRNPA1 / Fold change vs veh, HNRNPA1 / RFU, RNF170 / Fold change vs veh, RNF170 / RFU, ZNF28 / Fold change vs veh, ZNF28 / RFU, RNGTT / Fold change vs veh, RNGTT / RFU, OGT / Fold change vs veh, OGT / RFU, BRD1 / Fold change vs veh, BRD1 / RFU, MARS / Fold change vs veh, MARS / RFU, ZNF655 / Fold change vs veh, ZNF655 / RFU, FAHD1 / Fold change vs veh, FAHD1 / RFU, BDP1 / Fold change vs veh, BDP1 / RFU, LRRCC1 / Fold change vs veh, LRRCC1 / RFU, ARID1A / Fold change vs veh, ARID1A / RFU, ZNF146 / Fold change vs veh, ZNF146 / RFU, ZNF330 / Fold change vs veh, ZNF330 / RFU, GPN3 / Fold change vs veh, GPN3 / RFU, C9orf123 / Fold change vs veh, C9orf123 / RFU, N4BP2L2 / Fold change vs veh, N4BP2L2 / RFU, ARFIP1 / Fold change vs veh, ARFIP1 / RFU, FAM179B / Fold change vs veh, FAM179B / RFU, BCL10 / Fold change vs veh, BCL10 / RFU, UHRF1BP1L / Fold change vs veh, UHRF1BP1L / RFU, BET1 / Fold change vs veh, BET1 / RFU, CNOT2 / Fold change vs veh, CNOT2 / RFU, ZNF268 / Fold change vs veh, ZNF268 / Fold change vs veh, ZNF507 / RFU, DGCR2 / Fold change vs veh, DGCR2 / RFU, WDSUB1 / Fold change vs veh, WDSUB1 / Fold change vs veh, HSP90B1 /// MIR3652 / RFU, ADSS / Fold change vs veh, ADSS / RFU, GK / Fold change vs veh, GK / RFU, ZNF148 / Fold change vs veh, ZNF148 / RFU, TAF9 / Fold change vs veh, TAF9 / RFU, SLC1A5 / Fold change vs veh, SLC1A5 / RFU, SLMO2 / Fold change vs veh, SLMO2 / RFU, ABCC4 / Fold change vs veh, ABCC4 / RFU, LOC101060439 /// RAP1B / Fold change vs veh, LOC101060439 /// RAP1B / RFU, RFX7 / Fold change vs veh, RFX7 / RFU, GTPBP10 / Fold change vs veh, GTPBP10 / RFU, CNEP1R1 / Fold change vs veh, CNEP1R1 / RFU, BIVM-ERCC5 /// ERCC5 / Fold change vs veh, BIVM-ERCC5 /// ERCC5 / RFU, ILF3 / Fold change vs veh, ILF3 / RFU 11762660_at / Fold change /veh 11762660_at / RFU VCAN (11757783_s_at) / Fold change /veh VCAN (11757783_s_at) / RFU DDX43 (11728927_at) / Fold change /veh DDX43 (11728927_at) / RFU KRT8 (11758188_x_at) / Fold change /veh KRT8 (11758188_x_at) / RFU NKD1 (11759106_at) / Fold change /veh NKD1 (11759106_at) / RFU SRD5A1 (11742802_a_at) / Fold change /veh SRD5A1 (11742802_a_at) / RFU TPSAB1 /// TPSB2 (11721975_s_at) / Fold change /veh TPSAB1 /// TPSB2 (11721975_s_at) / RFU GSTM3 (11746129_a_at) / Fold change /veh GSTM3 (11746129_a_at) / RFU IL23R (11737362_x_at) / Fold change /veh IL23R (11737362_x_at) / RFU TMEM51 (11727254_a_at) / Fold change /veh TMEM51 (11727254_a_at) / RFU PIWIL2 (11732686_x_at) / Fold change /veh PIWIL2 (11732686_x_at) / RFU ORM1 (11744905_x_at) / Fold change /veh ORM1 (11744905_x_at) / RFU CCDC152 (11743942_at) / Fold change /veh CCDC152 (11743942_at) / RFU ECM1 (11717891_a_at) / Fold change /veh ECM1 (11717891_a_at) / RFU IL23R (11748794_a_at) / Fold change /veh IL23R (11748794_a_at) / RFU TNFAIP8L3 (11732012_x_at) / Fold change /veh TNFAIP8L3 (11732012_x_at) / RFU MBOAT4 (11741988_at) / Fold change /veh MBOAT4 (11741988_at) / RFU 11764193_at / Fold change /veh 11764193_at / RFU TMEM53 (11763286_at) / Fold change /veh TMEM53 (11763286_at) / RFU MAGEB2 (11727129_at) / Fold change /veh MAGEB2 (11727129_at) / RFU TMEM200A (11744735_a_at) / Fold change /veh TMEM200A (11744735_a_at) / RFU CCDC152 (11751479_a_at) / Fold change /veh CCDC152 (11751479_a_at) / RFU FAM211A (11726209_a_at) / Fold change /veh FAM211A (11726209_a_at) / RFU RGS16 (11746705_a_at) / Fold change /veh RGS16 (11746705_a_at) / RFU VCAN (11755009_s_at) / Fold change /veh VCAN (11755009_s_at) / RFU RHOB (11743442_s_at) / Fold change /veh RHOB (11743442_s_at) / RFU RGS16 (11720943_a_at) / Fold change /veh RGS16 (11720943_a_at) / RFU RGS16 (11720944_at) / Fold change /veh RGS16 (11720944_at) / RFU, VPS4B / Fold change vs veh, VPS4B / RFU, CREB1 / Fold change vs veh, CREB1 / RFU, DNAJC13 / Fold change vs veh, DNAJC13 / RFU, GNAQ / Fold change vs veh, GNAQ / RFU, CDK5R1 / Fold change vs veh, CDK5R1 / RFU, ZRANB3 / Fold change vs veh, ZRANB3 / RFU, CUL4A / Fold change vs veh, CUL4A / RFU, CCNY / Fold change vs veh, CCNY / RFU, UFL1 / Fold change vs veh, UFL1 / RFU, COG3 / Fold change vs veh, COG3 / RFU, DIAPH2 / Fold change vs veh, DIAPH2 / RFU, SKA2 / Fold change vs veh, SKA2 / RFU, AFF3 / Fold change vs veh, AFF3 / RFU, LMF1 / Fold change vs veh, LMF1 / RFU, IPO11 / Fold change vs veh, IPO11 / RFU, DFFB / Fold change vs veh, DFFB / RFU, FOXP1 / Fold change vs veh, FOXP1 / RFU, CARD8 / Fold change vs veh, CARD8 / RFU, STRN3 / Fold change vs veh, STRN3 / RFU, ADK / Fold change vs veh, ADK / RFU, RASSF2 / Fold change vs veh, RASSF2 / RFU, WIPF1 / Fold change vs veh, WIPF1 / RFU, LARP1B / Fold change vs veh, LARP1B / RFU, RASA1 / Fold change vs veh, RASA1 / RFU, RB1 / Fold change vs veh, RB1 / RFU, PPFIA1 / Fold change vs veh, PPFIA1 / RFU, MAT2A / Fold change vs veh, MAT2A / RFU, CCT5 / Fold change vs veh, CCT5 / RFU, WDR92 / Fold change vs veh, WDR92 / RFU, CUX1 / Fold change vs veh, CUX1 / RFU, TTC7A / Fold change vs veh, TTC7A / RFU, TMEM135 / Fold change vs veh, TMEM135 / RFU, DEPTOR / Fold change vs veh, DEPTOR / RFU, CPM / Fold change vs veh, CPM / RFU, DNAJB6 / Fold change vs veh, DNAJB6 / RFU, CACNA2D3 / Fold change vs veh, CACNA2D3 / RFU, DTX4 / Fold change vs veh, DTX4 / RFU, TFCP2 / Fold change vs veh, TFCP2 / RFU, GMCL1 /// GMCL1P1 / Fold change vs veh, GMCL1 /// GMCL1P1 / RFU, AEBP2 / Fold change vs veh, AEBP2 / RFU, SNHG1 /// SNORD22 /// SNORD25 /// SNORD26 /// SNORD27 /// SNORD28 /// SNORD29 /// SNORD31 / Fold change vs veh, SNHG1 /// SNORD22 /// SNORD25 /// SNORD26 /// SNORD27 /// SNORD28 /// SNORD29 /// SNORD31 / Fold change (Aza/veh), C12orf56 (ProbeSet 11735607_a_at) / Fold change (ACY-1035/veh), C12orf56 (ProbeSet 11735607_a_at) / Fold change (Aza/veh), FGFR1OP (ProbeSet 11751329_s_at) / Fold change (ACY-1035/veh), FGFR1OP (ProbeSet 11751329_s_at) / Fold change (Aza/veh), VPS36 (ProbeSet 11739960_a_at) / Fold change (ACY-1035/veh), VPS36 (ProbeSet 11739960_a_at) / RFU SYPL1 (11715823_x_at) / Fold change /veh SYPL1 (11715823_x_at) / RFU IGFBP7 (11715501_s_at) / Fold change /veh IGFBP7 (11715501_s_at) / RFU REEP3 (11722064_at) / Fold change /veh REEP3 (11722064_at) / RFU IGLL1 (11728026_x_at) / Fold change /veh IGLL1 (11728026_x_at): dose or concentration left out as unconfirmed
Conditions: ProbeSet 11728271_at; LIST B

## Nc1ncn([C@@H]2O[C@H](CO)[C@@H](O)[C@H]2O)c(=O)n1 [azacitidine]
  RFU, ZNF330: 711.81 RFU
